Like-named read-outs stand apart in the source and are kept apart here.

For data set [1] the following is noted: cited from earlier work.
For data set [2] the following is noted: animal models of meningitis caused by pneumococci; cited from earlier work.
A short description of data set [3]: Chemical stability of vancomycin in aqueous solution (CDP-I formation by HPLC): effect of pH, organic bases, ethanol, ammonium ions. The conditions noted are these: 4° C. (FIG. 7); high concentration and low pH.
Procedure: Selected samples were also incubated at a lower concentration (20 mg/mL).
In buffered samples, an appropriate amount of buffer or amino acid additive was added. The pH values were chosen to cover the range between the lowest and highest acceptable values of pH, including pH 5.0 for lipid stability reasons and pH 6.5, above which degradation is expected to be impractically fast.
The concentration of 200 mg/mL was chosen to mimic what a high intra-liposomal might be but was no higher than this for practical handling purposes. All samples were liquid solutions upon preparation.
For comparison, lower concentration solutions (20 mg/mL) also were prepared by diluting 200 mg/mL samples 10-fold in water. Samples were incubated at 4° C. (in refrigerator) and at ambient temperature (about 23° C., which is referred herein to as “room temperature” or “RT”).

As a reminder, the AUC is concentration integrated over time. The term Vd denotes a proportionality between amount in the body and measured concentration, not a real space. Consider `CN[C@H]1C(=O)N[C@@H]2Cc3ccc(cc3)Oc3cc4cc(c3O[C@@H]3O[C@H](C(=O)O)[C@@H](O)[C@H](O)[C@H]3NC(=O)CCCCCCCCC(C)C)Oc3ccc(cc3Cl)[C@@H](O)[C@@H]3NC(=O)[C@H](NC(=O)[C@@H]4NC(=O)[C@@H](NC2=O)c2cc(cc(O)c2Cl)Oc2cc1ccc2O)c1ccc(O)c(c1)-c1c(O[C@H]2O[C@H](CO)[C@@H](O)[C@H](O)[C@@H]2O)cc(O)cc1[C@@H](C(=O)NCCCN(C)C)NC3=O` [Dalbavanc in, Dalbavancin], for which, in data set [1] (in vivo), the AUC was 27103 µg·h/mL, the Protein binding is 98% and the Vd is listed as 0.11 L/kg.
Turning to `CN[C@H](CC(C)C)C(=O)N[C@H]1C(=O)N[C@@H](CC(N)=O)C(=O)N[C@H]2C(=O)N[C@H]3C(=O)N[C@H](C(=O)N[C@H](C(=O)O)c4cc(O)cc(O)c4-c4cc3ccc4O)[C@H](O[C@H]3C[C@](C)(N)[C@@H](O)[C@H](C)O3)c3ccc(c(Cl)c3)Oc3cc2cc(c3O[C@@H]2O[C@H](CO)[C@@H](O)[C@H](O)[C@H]2O[C@H]2C[C@](C)(NCc3ccc(-c4ccc(Cl)cc4)cc3)[C@@H](O)[C@H](C)O2)Oc2ccc(cc2Cl)[C@H]1O` [Oritavancin], in data set [1], the AUC is 152 µg·h/mL, the Protein binding is reported as 90% and the Terminal half-life is recorded as 360 h. The “concentration in cerebrospinal fluid, % of the serum level” value in data set [2] was 5%.
For `CCCCCCCCCCNCCN[C@@]1(C)C[C@H](O[C@H]2[C@H](Oc3c4cc5cc3Oc3ccc(cc3Cl)[C@@H](O)[C@@H](NC(=O)[C@@H](CC(C)C)NC)C(=O)N[C@@H](CC(N)=O)C(=O)N[C@H]5C(=O)N[C@H]3C(=O)N[C@H](C(=O)N[C@H](C(=O)O)c5cc(O)c(CNCP(=O)(O)O)c(O)c5-c5cc3ccc5O)[C@H](O)c3ccc(c(Cl)c3)O4)O[C@H](CO)[C@@H](O)[C@@H]2O)O[C@@H](C)[C@H]1O` [Telavancin], in data set [1], the AUC was 600 µg·h/mL, the Protein binding was 90-93% and the Terminal half-life is 7 h.
With `CN[C@H](CC(C)C)C(=O)N[C@H]1C(=O)N[C@@H](CC(N)=O)C(=O)N[C@H]2C(=O)N[C@H]3C(=O)N[C@H](C(=O)N[C@H](C(=O)O)c4cc(O)cc(O)c4-c4cc3ccc4O)[C@H](O)c3ccc(c(Cl)c3)Oc3cc2cc(c3O[C@@H]2O[C@H](CO)[C@@H](O)[C@H](O)[C@H]2O[C@H]2C[C@](C)(N)[C@H](O)[C@H](C)O2)Oc2ccc(cc2Cl)[C@H]1O` [Vancomycin], in data set [1], the AUC was 260 µg·h/mL, the Protein binding is 10-55%, the Terminal half-life is 4 to 8 h and the Vd is recorded as 0.3 L/kg. In addition, the degradation rate entry in data set [3] was “about 0.1 % per week”.
Take Teicoplanin: in data set [1], the AUC was 550 µg·h/mL, the Protein binding is reported as 90%, the Terminal half-life is 83 to 168 h and the Vd is 0.9 to 1.6 L/kg.
